≈ marks a conversion by molar mass, not a printed value.
Assays:
rat ileum [1] = assay: Rat ileum contraction induced by increasing concentrations of acetylcholine (neurotropic antispasmodic effect)
Procedure: (§1) An isolated vicenin 2 compound was tested for its antispasmodic effect with respect to the cholinergic system and with respect to nonspecific contraction mediated by Ba^++. Therefore, rat ileum was precontracted with increasing concentrations of either acetylcholine or Ba^++. The shift of either concentration response curve by the compound was determined. […] The dose of vicenin 2 for humans was estimated to be between 5 and 15 μg/70 kg b.w. which will correspond to 0.071 and 0.214 μg/kg b.w. Due to the increased metabolism in rodents compared to humans the doses were calculated as approx. between 0.5 and 1.49 μg/kg b.w. The central (blood) compartment (hydrophilic extracts) is approx. 7% of whole body volume, i.e. between 0.5/70 g and 1.4 μg/70 g blood. Since blood is in direct contact with ileum, a concentration of 7 to 20.86 μg/kg (0.007 to 0.021 μg/g) is expected for ileum. […] Therefore, it was reasonable to translate these in vivo calculations into the in vitro experiments and in these experiments 10 and 100 μl of a stock solution per 10 ml incubation bath were used. […] Under a protocol approved by the Animal Care and Use Committee of Munster, Germany, male and female rats (Charles River, Sulzfeld, Germany) weighing 200 to 320 g were used. The rats were anesthetized (CO2). The proximal ileum was removed, washed and placed in Krebs-Henseleit solution. 1 cm segments were placed in 10 mL organ baths with a resting tension of 1.0 g (preload). One end was attached to a force displacement transducer (lever transducer B40, Typ 373) combined with a two-channel amplifier (type 301, Hugo Sachs Elektronik, March, Germany); for the recording of tension changes a multi-pen recorder was used (Rikadenki Kogyo, Tokio, Japan). The composition of Krebs-Henseleit solution was (mM): […] The solution was kept at 37° C., pH 7.4 and gassed with carbogen (a 95% O2/5% CO2 mixture). Equilibration time for the ileum before starting the experiment was at least 30 min. After the tissues had been pre-treated with the extracts for 3 min cumulative concentration response curves using either acetylcholine or barium ion were recorded isotonically in the organ bath, and the effect was allowed to reach a steady state at each concentration. The results were normalized to 100% (maximum effect of either acetylcholine or barium ion alone). Differences between entire curves were obtained by comparing F-values of the best fitted curves by using GraphPad-Prism (version 3.00, GraphPad Software, Inc., 1999). P<0.05 was regarded as statistically significant.

rat ileum [2] = assay: Rat ileum contraction induced by increasing concentrations of barium ion (musculotropic antispasmodic effect)
Procedure: as §1

rat ileum [3] = assay: Rat ileum contraction, effect of the compound on its own (spasmolytic effect); settings: data as % of maximum acetylcholine effect; FIG. 1
Procedure: An isolated vicenin 2 compound was tested for its antispasmodic effect with respect to the cholinergic system and with respect to nonspecific contraction mediated by Ba^++. Therefore, rat ileum was precontracted with increasing concentrations of either acetylcholine or Ba^++. The shift of either concentration response curve by the compound was determined. […] The dose of vicenin 2 for humans was estimated to be between 5 and 15 μg/70 kg b.w. which will correspond to 0.071 and 0.214 μg/kg b.w. Due to the increased metabolism in rodents compared to humans the doses were calculated as approx. between 0.5 and 1.49 μg/kg b.w. The central (blood) compartment (hydrophilic extracts) is approx. 7% of whole body volume, i.e. between 0.5/70 g and 1.4 μg/70 g blood. Since blood is in direct contact with ileum, a concentration of 7 to 20.86 μg/kg (0.007 to 0.021 μg/g) is expected for ileum. […] Therefore, it was reasonable to translate these in vivo calculations into the in vitro experiments and in these experiments 10 and 100 μl of a stock solution per 10 ml incubation bath were used. […] After the tissues had been pre-treated with the extracts for 3 min cumulative concentration response curves using either acetylcholine or barium ion were recorded isotonically in the organ bath, and the effect was allowed to reach a steady state at each concentration. […]

[4] = tested on: murine frontal cortex networks; assay: Cortical network activity in vitro, electrophysiological multi-channel recordings on MEA neurochips; type: cell-based, mice
Source text: Purpose of this example was the evaluation of the acute neuroactive effects of vicenin 2 (named AUC-V) on the neuronal activity of murine frontal cortex networks in vitro by means of electrophysiological multi-channel recordings.
Therefore, in a first step the dose-effect curve of vicenin 2 was plotted by means of cumulatively increasing the substance concentration, so that the spectrum of activity of the substance is optimally covered with 9 concentrations. Concentration from 100 fg/ml, 10 pg/ml, […], 1 ng/ml, 100 ng/ml, 1 μg/ml, 10 μg/ml, 100 μg/ml and 300 μg/ml were used.
Subsequently, the measurements of the dose-effect curve of the test substances were repeated at least 10 times. The recorded electrical activity patterns were characterized by 200 features and their changes were statistically evaluated.
The microelectrode array neurochips (MEA neurochips) were provided by the Center for Network Neuroscience (CNNS) at the University of North Texas. These 5×5 cm^2 glass chips have a central recording matrix with 64 passive electrodes and indium tin oxide conductors. The hydrophobic insulation material surface was activated by a brief butane flame pulse through a stainless steel mask. Thus, cell attachment on a confined adhesive region (5 mm diameter centered on the electrode array) is ensured. The activated surface regions were coated with poly-D-lysine (25 μg/ml; 30-70 kD) and laminin (16 μg/ml). Fabrication techniques and culture methods have been described previously.
Frontal cortex tissue was harvested from embryonic day 15, or day 14 chr:NMRI mice. After ethyl ether anesthesia, mice were sacrificed by cervical dislocation according to the German Animal Protection Act §4. […] Cultures were incubated at 37° C. in a 10% CO2 atmosphere until ready for use, which usually is four weeks to three months after seeding. […]
For extracellular recording, MEA neurochips were placed into sterilized constant-bath recording chambers and maintained at 37° C. […] The signals routinely recorded by these neurochips are located in a range of 15-1800 μV. […]

[5] = tested on: murine frontal cortex networks; assay: Pattern recognition classification of activity patterns against the NeuroProof database (105 substances); type: cell-based, mice; settings: AUC-V, all 143
Procedure: Afterwards, a further analysis was carried out through a pattern-recognition analysis and through comparison with NeuroProof database to determine relevant mechanisms involved in the frontal cortex activity pattern induced changes by each substance.
To clarify the mode of action of the test substance on the activity of cortical networks these experiments were further analyzed using methods of pattern recognition. For each stable concentration activity phase we normalized the 200 spike train parameters by the native reference activity.
Using a feature selection algorithm, on the basis of the reference substances, the 40 most descriptive parameters for all 200 spike train parameters were selected. The rankings of activity features using various score methods based on classification experiments and compared their total correct predictions were calculated. In this manner, the best results for a MDL (minimal description length) modified algorithm were obtained. A training data set with these 40 spike train parameters was established in the form of data records from the reference substances. An artificial neuronal network, multi layer feed forward network and back propagation algorithm […] hidden units was then trained. The respective data records of the four substances were all subsequently classified. A classification against 105 substances in the database was carried out.
The classification against 105 substances using the electrophysiological multi-channel recording of vicenin 2 and the 105 substances identified several activities for vicenin 2.

[6] = Solubility of isolated vicenin 2; type: physicochemical

With `CN1[C@@H]2CC[C@H]1C[C@@H](OC(=O)C(CO)c1ccccc1)C2` (stereo partly drawn) [Atropine, reference compound] the “shift of the acetylcholine concentration response curve” value (rat ileum [1]; positive control, 5×10^−5 mg/ml, FIG. 2) was “expected competitive neurotropic antispasmodic effect” and the “shift of the acetylcholine concentration response curve” value (rat ileum [1]; positive control, 5×10^−5 mg/ml, FIG. 2, listed as atropine) was “significantly different from the acetylcholine curve”.

In the case of `COc1ccc(Cc2nccc3cc(OC)c(OC)cc23)cc1OC` [Papaverine, reference compound], the “shift of the Ba++ concentration response curve” value (rat ileum [2]; positive control, 4×10^−2 g/ml, FIG. 4) is reported as “expected non-competitive musculotropic antispasmodic effect” and the “shift of the Ba++ concentration response curve” value (rat ileum [2]; positive control, 4×10^−2 g/ml, FIG. 4, listed as papaverine) is reported as “significantly different from the acetylcholine curve without additions”.

With `O=c1cc(-c2ccc(O)cc2)oc2c([C@@H]3O[C@H](CO)[C@@H](O)[C@H](O)[C@H]3O)c(O)c([C@@H]3O[C@H](CO)[C@@H](O)[C@H](O)[C@H]3O)c(O)c12` [vicenin 2, 5,7-Dihydroxy-2-(4-hydroxyphenyl)-6,8-bis[(2S,3R,4R,5S,6R)-3,4,5-trihydroxy-6 (hydroxymethyl)oxan-2-yl]chromen-4-one] the “effect on rat ileum contraction from its own (direct spasmolytic effect)” value (rat ileum [3]) was “slight (not significant) relaxation”, the “shift of the acetylcholine concentration response curve” value (rat ileum [1]; 0.005 mg/ml final bath concentration, FIG. 2) was “shifted the acetylcholine curve to the right in a competitive manner” and the “shift of the acetylcholine concentration response curve” value (rat ileum [1]; 0.005 mg/ml final bath concentration, FIG. 2, listed as AUC-V) was “significantly different from the acetylcholine curve”. The “shift of the acetylcholine concentration response curve” value (rat ileum [1]; 0.05 mg/ml final bath concentration, FIG. 3) was “stronger rightward and downward shift of the acetylcholine curve”, the “shift of the acetylcholine concentration response curve” value (rat ileum [1]; 0.05 mg/ml final bath concentration, FIG. 3, listed as AUC-V) was “significantly different from the acetylcholine curve” and the “shift of the Ba++ concentration response curve” value (rat ileum [2]; 0.005 mg/ml final bath concentration, FIG. 4) was “shifted the Ba^++ curve downwards”. For the same compound, the “shift of the Ba++ concentration response curve” value (rat ileum [2]; 0.005 mg/ml final bath concentration, FIG. 4, listed as AUC-V) was “significantly different from the acetylcholine curve without additions”, the “shift of the Ba++ concentration response curve” value (rat ileum [2]; 0.05 mg/ml final bath concentration, FIG. 5) was “rightward and downward shift of the Ba^++ curve” and the “shift of the Ba++ concentration response curve” value (rat ileum [2]; 0.05 mg/ml final bath concentration, FIG. 5, listed as AUC-V) was “significantly different from the acetylcholine curve with no further additions”. For the same compound, the “effect on burst structure of the network” value [4] was “no affects on the burst structure”, the EC50 ([4]; Mus musculus, 9 accumulating concentrations, FIG. 6, read-out: EC50 of decrease of the cortical network activity (spike rate)) was 2 µg/mL (≈ 3.36 µM) and the “maximum decrease of the cortical network activity” value ([4]; remaining activity, FIG. 6) was 80 % of the native activity. For the same compound, the “data records classified as the respective substance” value (“data records classified” for short) ([5]; classified as Amisulpride) was 15%, the “data records classified” value ([5]; classified as Atropinemethylbromide) was 12% and the “data records classified” value ([5]; classified as DPDPE) was 11%. For the same compound, the “data records classified” value ([5]; classified as Enkephalin) was 14%, the “data records classified” value ([5]; classified as Eserine) was 15% and the “data records classified” value ([5]; classified as Indatraline) was 12%. For the same compound, the “data records classified” value ([5]; classified as Modafinil) was 12%, the “data records classified” value ([5]; classified as Nicotine) was 12% and the “data records classified” value ([5]; classified as Olanzapine) was 17%. The “data records classified” value ([5]; classified as Sodium dodecyl sulfate) was 12% and the solubility [6] was “good solubility”.

From patent publication US9125926B2, “Vicenin 2 and analogues thereof for use as an antispasmodic and/or prokinetic agent” (priority 2011, dated 2015)
